Values quoted from earlier work as cited in patent WO2011084962A1, “Analogs of dehydrophenylahistins” (Nereus Pharmaceuticals Inc, priority 2010, dated 2011).

How the values were obtained:
[1] = system: neovessels in non-neoplastic tissue; conditions: in vivo
[2] = system: cell cycle progression in the M phase
[3] = system: choroidal neovascularization; conditions: in vivo
[4] = system: VEGF induced retinal neovascularization; conditions: in vivo
[5] = system: retinal neovascularization; conditions: occurs during proliferative retinopathy

Row | SMILES | effect on the microtubule assembly (microtubule assembly) | inhibition of cell cycle progression in the M phase [2] | other results
1 | COc1ccc(/C=C\c2cc(OC)c(OC)c(OC)c2)cc1O [Combretastatin A-4] | – | – | disruption of neovessels in non-neoplastic tissue [1]: cause the disruption of neovessels in non-neoplastic tissue
2 | CC(C)=CCc1[nH]c2ccccc2c1C[C@@H]1NC(=O)[C@@H]2CCCN2C1=O [tryprostatin B] | affect the microtubule assembly | inhibited cell cycle progression in the M phase | –
3 | COc1ccc(/C=C\c2cc(OC)c(OC)c(OC)c2)cc1OP(=O)(O)O [CA-4P] | – | – | inhibition of development and/or partial regression of choroidal neovascularization [3]: inhibit the development and/ or cause partial regression of choroidal neovascularization; suppression of the development of VEGF induced retinal neovascularization [4]: suppress the development of VEGF induced retinal neovascularization; inhibition of retinal neovascularization [5]: inhibit the retinal neovascularization that occurs during proliferative retinopathy
4 | COc1ccc2c(C[C@@H]3NC(=O)[C@@H]4CCCN4C3=O)c(CC=C(C)C)[nH]c2c1 [tryprostatin A] | affect the microtubule assembly | inhibited cell cycle progression in the M phase | –
